Test results as given in patent EP1590332B1, “A PROCESS FOR THE SYNTHESIS OF BISBENZIMIDAZOLES AND THEIR DERIVATIVES” (University of Delhi, priority 2003, dated 2004).
Where two headings read alike, the source gives them in different places.

Experiments:
[1] = tested on: human brain malignant glioma cell line BMG-1; assay: MTT microtiter plate tetrazolium cytotoxicity assay; type: cell-based; conditions: cells treated 1 h
Description: (§1) The cytotoxic effect of DMA and TBZ on exponentially growing tumor cells BMG-1 was studied as a function of time. Cells were treated for 1 h with the ligands and allowed to grow for 24, 48 and 72 hours. The MTT assay was performed at the specified time points. […] There seemed to be no effect on the metabolic status of the treated cells. However, strikingly the metabolic activity of the treated cells seemed to be enhanced as compared to the untreated control cells. To further support our results we have performed cell survival assay at 0.1uM, 10uM and 100uM concentration of drug having control as untreated cell. These experiments were done thrice in six sets. Exponentially growing cells were used in these experiments and cell survival was studied using Macrocolony assay. The plating efficiency was nearly 77%. […] The increase in cell number as a function of time for the control as well as the treated cells remained same. The radioprotective effect of the newly synthesized ligands were studied spectroscopically as well as in human brain glioma cell line BMG-1. The spectroscopic studies done included UV-Vis sepctroscopy, Fluorescence spectroscopy, Anisotropy measurements and Lifetime measurements and Thermal denaturation studies. Calf thymus DNA was chosen as the DNA material and ligands were incubated with the DNA and irradiated at different doses of radiation. […] At the cellular level also, the ligands were incubated with the cells and cell survival assay was performed to study the radioprotective effect of the new ligands in comparison to the parent molecule Hoechst 33342.
The cytotoxicity was determined using the MTT microtiter plate tetrazolium cytotoxicity assay (MTA). The human brain malignant glioma cell line BMG-1 was used. The cytotoxicity assay was performed using 96-well microtiter plates. 3000 cells/ well were plated and treatment of the ligands was done 24 hours post plating. […] 150 µl of DMSO was added and the plate was read at 540 nm with reference at 630 nm.

[2] = tested on: BMG-1 cells; assay: cells; conditions: Homo sapiens
Description: (§2) The cytotoxic effect of DMA and TBZ on exponentially growing tumor cells BMG-1 was studied as a function of time. Cells were treated for 1 h with the ligands and allowed to grow for 24, 48 and 72 hours. The MTT assay was performed at the specified time points. […] These experiments were done thrice in six sets. Exponentially growing cells were used in these experiments and cell survival was studied using Macrocolony assay.
(§3) Cells were washed with HBSS and harvested using 0.05% trypsin. […] Colonies were fixed in methanol and stained with 1% crystal violet. Proliferation Kinetics BMG-1 cells were seeded at 7000-8000 cells/ cm^2, and their proliferation kinetics was measured at 24-h intervals by trypsinizinig and counting total cells per flask using a hemocytometer.

[3] = tested on: Hek cells; assay: Macrocolony assay (cell survival assay) with 5 Gy irradiation; type: cell-based, human; conditions: 10uM drug added 1h before irradiation; for viability at 10 µM: Homo sapiens, HEK293, light or radiation study, read-out: Survival friction
Description: Both cell lines in triplicate were washed with HBSS, plated and grown for four days before harvesting using 0.05% trypsin, Depending on the treatments, 200 to 1200 cells were plated in 90 mm petri dishes and incubated at 37°C in 5% CO2 humidified atmosphere for 8 to 10 days. Colonies were fixed with methanol and stained with 1 % crystal violet Colonies containing more than 50 cells were counted.
Exponentially growing cells, 24 h after plating were irradiated at room temperature in growth medium with a Co-60 source (Gamma cell, AECL, Canada) at a dose rate of 0.5 to 1.2 Gy/min. Concentration of 10µm drug was added 1h before irradiation. Following this procedure, cells were grown for various time intervals to study growth kinetics and plated for Macrocolony assay as shown in the following Tables 3 & 4 and figure 1 & 2 Table 3

[4] = tested on: BMG-1 cells
Description: as §2, §3

[5] = in vitro; conditions: bmg-1 cells
Description: as §2, §3

[6] = tested on: Calf thymus DNA; assay: Thermal denaturation / spectroscopic studies of ligand-DNA complex in presence and absence of radiation; type: binding
Description: as §1

[7] = tested on: BMG-1 cells; assay: Proliferation kinetics (growth kinetics); type: cell-based, human; conditions: 100µM, exponentially growing cells
Description: The cytotoxic effect of DMA and TBZ on exponentially growing tumor cells BMG-1 was studied as a function of time. Cells were treated for 1 h with the ligands and allowed to grow for 24, 48 and 72 hours. The MTT assay was performed at the specified time points. […] There seemed to be no effect on the metabolic status of the treated cells. However, strikingly the metabolic activity of the treated cells seemed to be enhanced as compared to the untreated control cells. To further support our results we have performed cell survival assay at 0.1uM, 10uM and 100uM concentration of drug having control as untreated cell. These experiments were done thrice in six sets. Exponentially growing cells were used in these experiments and cell survival was studied using Macrocolony assay. The plating efficiency was nearly 77%. […] The increase in cell number as a function of time for the control as well as the treated cells remained same. […] The spectroscopic studies done included UV-Vis sepctroscopy, Fluorescence spectroscopy, Anisotropy measurements and Lifetime measurements and Thermal denaturation studies. […]
Cells were washed with HBSS and harvested using 0.05% trypsin. […] Proliferation Kinetics BMG-1 cells were seeded at 7000-8000 cells/ cm^2, and their proliferation kinetics was measured at 24-h intervals by trypsinizinig and counting total cells per flask using a hemocytometer. […]

[8] = light or radiation study, read-out: Survival fraction, 1uM, no irradiation
[9] = light or radiation study, read-out: Survival fraction, 10uM, no irradiation
[10] = light or radiation study, read-out: Survival fraction, 100uM, no irradiation
[11] = light or radiation study, read-out: Survival fraction, Table 3: BMG-1, 5 Gy irradiation, 10uM drug added 1h before irradiation
[12] = read-out: Survival fraction, 1uM + 5 Gy
[13] = read-out: Survival fraction, 10uM + 2Gy
[14] = read-out: Survival fraction, 10uM + 5 Gy (Table 2)
[15] = read-out: Survival fraction, 10uM + 10 Gy
[16] = read-out: Survival fraction, 100uM + 5 Gy
[17] = Table 3: BMG-1, 5 Gy irradiation, 10uM drug added 1h before irradiation
[18] = Ratio [ligand]/[DNA] 0.01, Dose 0 Gy
[19] = Ratio [ligand]/[DNA] 0.01, Dose 100 Gy
[20] = Ratio [ligand]/[DNA] 0.1, Dose 0 Gy
[21] = Ratio [ligand]/[DNA] 0.1, Dose 100 Gy

Compound	cytotoxicity ([1]; 100µM, MTT up to 72 hours)	viability at 1 µM [2, 8]	viability at 10 µM [2, 9]	viability at 100 µM [2, 10]	viability at 10 µM [2, 11]	viability at 1 µM [2, 12]	viability at 10 µM [2, 13]	viability at 10 µM [2, 14]	viability at 10 µM [2, 15]	viability at 100 µM [2, 16]	Plating efficiency % [3]	viability at 10 µM [3]	Plating efficiency % ([4]; 1uM + 5 Gy)	Plating efficiency % ([4]; 1uM, no irradiation)	Plating efficiency % ([4]; 10uM + 2Gy)	Plating efficiency % ([4]; 10uM + 5 Gy (Table 2))	Plating efficiency % ([4]; 10uM + 10 Gy)	Plating efficiency % ([4]; 10uM, no irradiation)	Plating efficiency % ([4]; 100uM + 5 Gy)	Plating efficiency % [4, 17]	also measured
COc1ccc(-c2nc3cc(-c4nc5cc(N6CCN(C)CC6)ccc5[nH]4)ccc3[nH]2)cc1OC [DMA, 5-(4-methylpiperazin-1-yl)-2-[2'-(3,4-dimethoxyphenyl)-5'-benzimidazolyl]benzimidazole]	do not show any cytotoxicity	97%	100%	95%	40%	32%	93%	40%	6%	38%	27%	50%	22%	65%	63%	27%	4%	67%	25%	27%	Plating efficiency % ([4]; 100uM, no irradiation): 64%; cytotoxicity at 10 µM [5]: 3%; viability at 100 µM [5]: 73%
CN1CCN(c2ccc3nc(-c4ccc5nc(-c6ccc(O)cc6)[nH]c5c4)[nH]c3c2)CC1 [Hoechst 33258, reference compound]	–	–	–	–	–	–	–	–	–	–	–	–	–	–	–	–	–	–	–	–	Tm [6, 18]: 71.5 °C; Tm [6, 19]: 67.5 °C; Tm [6, 20]: 81.7 °C; Tm [6, 21]: 79.3 °C
CCOc1ccc(-c2nc3ccc(-c4nc5ccc(N6CCN(C)CC6)cc5[nH]4)cc3[nH]2)cc1 [Hoechst 33342, reference compound]	–	–	–	–	10%	–	–	–	–	–	20%	10%	–	–	–	–	–	–	–	20%	cytotoxicity ([1]; 10µM, MTT at 24, 48 and 72 hours): highly cytotoxic; effect on cell survival ([4]; low concentrations, no irradiation): do not seem to have considerable effect on cell survival; viability at 100 µM ([5]; cell survival, 100µM, no irradiation): 10%; viability at 10 µM ([5]; surviving fraction, 10µM, no irradiation): 45%
COc1cc(-c2nc3cc(-c4nc5cc(-c6nc7cc(N8CCN(C)CC8)ccc7[nH]6)ccc5[nH]4)ccc3[nH]2)ccc1O [TBZ, 5-(4-methylpiperazine-1-yl)-2-[2'-{2"-(4-hydroxy-3-methoxyphenyl)-5"-benzimidazolyl}-5'-benzimidazolyl]benzimidazole]	do not show any cytotoxicity	107%	105%	102%	30%	31%	89%	30%	5%	26%	25%	48%	21%	73%	60%	20%	3.5%	71%	18%	20%	Tm [6, 18]: 74.3 °C; Tm [6, 19]: 75 °C; Tm [6, 20]: 77.7 °C; Tm [6, 21]: 81.5 °C; effect on growth ([4]; 10µM, no irradiation): increase in growth; Plating efficiency % ([4]; 100uM, no irradiation): 69%; radioprotection in comparison to Hoechst 33342 ([4]; conclusion from BMG-1 and Hek cell lines): better radioprotectors; effect on growth ([4]; low concentrations (upto 10µM), no irradiation): slight stimulatory effect on growth; growth kinetics of the treated cells [7]: did not differ from the untreated cells; cytotoxicity at 100 µM [5]: 9%; viability at 100 µM [5]: 92%
